Drawing on publication PMC13042316 (Open journal of immunology, 2011), this text covers IC50 for one compound.

This experiment concerns the target recombinant human MBL (mannose-binding lectin) (Homo sapiens, UniProt P11226). Kind of experiment: ELISA, inhibition of MBL binding to immobilised mannan. In general terms: ELISA stands for enzyme-linked immunosorbent assay.

Molecules are shown by their SMILES. Bounds are passed on as bounds.

recombinant human MBL (mannose-binding lectin), sequence (P11226 21-248): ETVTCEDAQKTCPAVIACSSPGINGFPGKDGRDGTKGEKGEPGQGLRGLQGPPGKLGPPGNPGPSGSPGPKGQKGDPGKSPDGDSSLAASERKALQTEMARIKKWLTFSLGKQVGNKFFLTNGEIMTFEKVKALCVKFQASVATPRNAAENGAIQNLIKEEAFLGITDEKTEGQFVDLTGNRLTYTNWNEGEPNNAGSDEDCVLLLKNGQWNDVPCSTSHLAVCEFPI

One may read the IC50 as the concentration that inhibits the measured activity by half. As to `OC[C@H]1O[C@@](CO)(O[C@H]2O[C@H](CO)[C@@H](O)[C@H](O)[C@H]2O)[C@@H](O)[C@@H]1O` [sucrose], the IC50 was over 11 mM.
